How the values were obtained:
[1] = system: wildtype Wnt signaling cascade; experiment: HEK293 TOP assay (Super TopFlash luciferase reporter, Wnt-3a stimulated); format: cell-based; conditions: Homo sapiens, HEK293, 16 h, HEK293 TOP reporter cells, Wnt3a at EC50, 16 hours
In short: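 HEK293 cells stably carrying Super TopFlash (TOP) run in parallel with FOP cells, 10000/well plated 24 h ahead, stimulated with recombinant human Wnt-3a. Compounds tested 50 μM to 15 nM in 3.16-fold steps in CAFTY buffer pH 7.4 with 2 mM Ca^2+ and 0.01% BSA; luciferase read-out.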

[2] = system: HEK293 cells cotransfected with the FOP control vector; experiment: HEK293 FOP assay (control reporter with non-functional TCF elements); format: cell-based; conditions: Homo sapiens, 16 hours
In short: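 Stable HEK293 line carrying FOP control reporter (randomized non-functional TCF sites, with pcDNA3), Geneticin-selected, plated 24 h before assay. Stimulated with recombinant human Wnt-3a (2500-5 ng/ml) and compounds 50 μM–15 nM (3.16-fold steps) in CAFTY buffer pH 7.4 with 2 mM Ca2+, 0.01% BSA, run parallel to TOP line.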

TNKS1 = target: T1, TNKS1 (Homo sapiens, UniProt O95271); experiment: TNKS1 Assay B (auto-parsylation, [3H]-NAD+ SPA); format: biochemical; conditions: 6 nM TNKS1, auto-parsylation, over night at room temperature
T1 construct: purchased BPS Bioscience, San Diego, USA 80579 (TNKS1 Histone Ribosylation Assay Kit)
T1 sequence (O95271 1-1327): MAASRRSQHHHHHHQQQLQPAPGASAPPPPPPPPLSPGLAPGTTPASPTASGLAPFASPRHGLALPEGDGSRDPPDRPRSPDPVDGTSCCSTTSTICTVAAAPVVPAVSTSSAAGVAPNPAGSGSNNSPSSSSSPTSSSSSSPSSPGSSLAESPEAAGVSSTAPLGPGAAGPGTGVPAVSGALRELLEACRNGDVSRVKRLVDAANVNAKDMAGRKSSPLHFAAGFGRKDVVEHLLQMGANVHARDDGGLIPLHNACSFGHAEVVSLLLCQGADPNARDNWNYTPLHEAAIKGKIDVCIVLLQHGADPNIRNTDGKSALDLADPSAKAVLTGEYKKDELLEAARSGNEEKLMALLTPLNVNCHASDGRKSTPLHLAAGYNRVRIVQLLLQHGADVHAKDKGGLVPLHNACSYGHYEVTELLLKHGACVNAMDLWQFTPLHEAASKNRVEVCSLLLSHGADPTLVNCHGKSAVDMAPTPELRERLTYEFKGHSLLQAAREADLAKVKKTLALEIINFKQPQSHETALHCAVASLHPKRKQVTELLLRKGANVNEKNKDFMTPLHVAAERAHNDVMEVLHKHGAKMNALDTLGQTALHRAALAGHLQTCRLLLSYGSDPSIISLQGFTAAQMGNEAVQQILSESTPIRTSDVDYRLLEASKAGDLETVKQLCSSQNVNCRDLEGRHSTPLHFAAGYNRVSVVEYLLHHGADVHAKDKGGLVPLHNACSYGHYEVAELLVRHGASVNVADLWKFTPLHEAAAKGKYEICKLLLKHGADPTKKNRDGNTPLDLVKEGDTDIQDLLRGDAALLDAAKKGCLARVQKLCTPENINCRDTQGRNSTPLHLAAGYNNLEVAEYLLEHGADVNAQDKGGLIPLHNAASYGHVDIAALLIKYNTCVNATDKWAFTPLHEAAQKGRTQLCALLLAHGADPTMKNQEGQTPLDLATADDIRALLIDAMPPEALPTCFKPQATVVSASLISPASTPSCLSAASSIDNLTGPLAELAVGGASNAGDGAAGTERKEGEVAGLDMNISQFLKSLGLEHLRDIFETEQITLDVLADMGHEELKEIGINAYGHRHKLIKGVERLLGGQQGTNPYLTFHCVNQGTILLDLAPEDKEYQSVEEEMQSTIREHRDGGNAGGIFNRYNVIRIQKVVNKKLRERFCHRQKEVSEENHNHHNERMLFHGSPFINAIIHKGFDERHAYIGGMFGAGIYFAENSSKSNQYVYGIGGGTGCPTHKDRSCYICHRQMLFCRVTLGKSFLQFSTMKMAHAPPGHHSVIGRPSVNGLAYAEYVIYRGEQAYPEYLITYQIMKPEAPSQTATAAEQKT
Procedure: The potency of selected compounds according to the invention was assessed applying a modified in vitro inhibition assay. Here, the TNKS1 catalyzed NAD^+-dependent ribosylation of the enzyme itself (auto-parsylation) was detected using [^3H]-NAD^+ as substrate and applying the scintillation proximity assay (SPA) method to detect tritium-labeled, parsylated TNKS1. The intensity of the readout signal is proportional to the incorporated [^3H]-NAD^+. Inhibition of TNKS1 leads to a decreased incorporation of [^3H]-NAD^+ and consequently to a lower readout signal intensity. The concentration of a test compound which inhibits the enzyme activity by 50% (corresponds to half of the normed readout signal intensity) is reported as IC50.
Protocol Auto-Parsylation Assay
The assay was conducted in a 96 well MTP format with the identical TNKS1 enzyme sample and NAD^+ sample as in the histone ribosylation assay with the following modifications: TNKS1 enzyme sample was diluted with a modified assay buffer (50 mM MES pH 7.0, 1 mM DTT, 0.01% Triton X-100) to a final concentration of 6 nM TNKS1 and 10×NAD^+ solution was diluted with the modified assay buffer (s. above) to a final 0.445×NAD^+ solution doped with 100 Bq/μl [^3H]-NAD^+[Catalog #NET443H050UC, Perkin Elmer, Waltham, Mass., USA]. Substrate solution (10 μl) was incubated with different test compound concentrations (2.5 ul in 10% DMSO in modified assay buffer) or control (2.5 ul 10% DMSO in modified assay buffer only) and enzyme (10 μl) over night at room temperature. Incorporated tritium was measured after addition of 50 μl SPA beads (1 mg/ml) [Catalog #RPNQ0095 20 mg/ml, Perkin Elmer, Waltham, Mass., USA; diluted 1:10 with Dulbecco's phosphate buffered saline, PBS Catalog #D8537, Sigma-Aldrich, Steinheim, Germany] and detection of the photon emission with a beta count plate reader [Wallac MicroBeta®, Perkin Elmer, Waltham, Mass., USA].

Q: With `O=C(N[C@H]1CC[C@H](C(=O)Nc2cc(N3CCOCC3)ccc2Cl)CC1)c1[nH]cnc1C(=O)N1CC(F)(F)C1` [Example 92, N-(trans-4-{[2-chloro-5-(morpholin-4-yl)phenyl]carbamoyl}cyclohexyl)-4-[(3,3-difluoroazetidin-1-yl)carbonyl]-1H-imidazole-5-carboxamide] as the compound, how does the IC50 [1] read?
A: 3.2 µM

Q: What about the IC50 [2] of the same compound?
A: 21 µM

Q: And the IC50 (TNKS1)?
A: > 10 µM
